From US20160229835A1, “NOVEL PYRIDYLOXYACETYL TETRAHYDROISOQUINOLINE COMPOUNDS USEFUL AS NAMPT INHIBITORS” (ELI LILLY AND COMPANY, priority 2013, published 2016)

How the values were obtained:
[1] = test system: H1155 tumor model; assay: Efficacy in Xenograft Tumor Models, NCI-H1155; type: in vivo; conditions: nude mice, 4-day-on and 3-day-off schedule for 17 days
Method: The purpose of this assay is to measure reduction in tumor volume in response to test compound administration. A2780 and NCI-H1155 (NSCLC) cells are grown as described above for IVTI studies. Cells are harvested and injected subcutaneously onto the rear flank of nude mice. When tumors are established (7-21 days after implant), animals are randomized and grouped into control and test groups (7 animals/group). The test compound is formulated in 20% of CAPTISOL® and 25 mM of phosphate buffer, pH 2. Test compound and vehicle (20% of CAPTISOL® and 25 mM of phosphate buffer, pH 2 without compound) are administered by oral gavage. Tumor response is determined by tumor volume measurement (caliper) performed twice a week during the course of treatment and reported as percent of tumor volume of each treatment group divided by tumor volume of the vehicle control group. […] For example, Example 1 in H1155 tumor model, when dosed at 10 mg/kg (twice a day (BID) on a 4-day-on and 3-day-off schedule for 17 days, a T/C of 5.5 (P value<0.001 based on T-test) is achieved; when dosed at 20 mg/kg on the same schedule, a T/C of −81.1 (P value<0.001 based on T-test) is achieved. Example 2 in H1155 tumor model, when dosed at 8 mg/kg (twice a day (BID) on a 4-day-on and 3-day-off schedule for 17 days, a T/C of 5.2 (P value<0.001 based on T-test) is achieved; when dosed at 16 mg/kg on the same schedule, a T/C of −82.7 (P value<0.001 based on T-test) is achieved. Example 1 in A2780 tumor model, when dosed at 10 mg/kg (twice a day (BID) on a 4-day-on and 3-day-off schedule for 17 days, a T/C of 41.7 (P value<0.007 based on T-test) is achieved; when dosed at 20 mg/kg on the same schedule, a T/C of 2.4 (P value<0.001 based on T-test) is achieved.

[2] = test system: A2780 Tumor Xenografts; assay: LC-MS Analysis of NAD+ in A2780 Tumor Xenografts; type: in vivo, mice; conditions: oral gavage
Method: The purpose of this assay is to measure effects of NAMPT inhibitors on NAD^+ formation in cancer cells. LC-MS analysis of NAD^+ metabolites: nicotinamide mononucleotide (NMN), NAD^+, reduced nicotinamide adenine dinucleotide (NADH), and nicotinamide adenine dinucleotide phosphate (NADP) is performed on an HPLC system coupled to a Thermo Quantum Ultra triple quadrupole mass spectrometer operated in positive heated electrospray mode with selected reaction monitoring detection. For cell extracts, 50 μL of extract and 10 μL of 10 μM internal standard (IS) solution is transferred to a 96-well plate, dried under nitrogen and reconstituted in 50 μL of water. For tissue extracts, 20 μL of extract and 10 μL of IS solution are dried and reconstituted in 50 μL water. The IS solution contains 10 μM nicotinamide-d4 (C/D/N Isotopes), nicotinic acid-d4 (C/D/N Isotopes), nicotinamide mononucleotide-d4 (prepared by custom synthesis) and nicotinamide 1,N^6-ethenoadenine dinucleotide in methanol. The metabolites are separated on a Waters XBRIDGE™ Amide (2.1×50 mm, 3 μm) with an injection volume of 10 μL and a flow rate of 1 mL/minute using 10 mM ammonium acetate in 95% acetonitrile for mobile phase A and 10 mM ammonium acetate in 50% acetonitrile for mobile phase B. The gradient is as follows: 0 minutes, 0% B; 2.5 minutes, 70% B; 2.51 minutes, 100% B; 2.8 minutes, 100% B; 2.81 minutes, 0% B, 3.6 minutes, 0% B.
The purpose of this assay is to measure the effects of NAMPT inhibitors on NAD^+ levels in vivo as described above. Tumors are grown and treated as described below for efficacy in xenograft tumor models below (7 animals/group). Each compound is also formulated as described for efficacy in xenograft tumor models below. Vehicle is 20% of CAPTISOL® and 25 mM of phosphate buffer, pH 2 without compound. After the completion of the treatment, tumor tissues (˜50 mg each) are homogenized in an ice cold extraction buffer (1 mL of 70% methanol/water; HPLC grade for 2 minutes in a tissue lyser II (QIAGEN™) at frequency 30 Hz. The resulting preparations are centrifuged at 14000×g for 6 minutes. The supernatant fractions (500 μL each) are collected and extracted with chloroform (0.5 mL). The aqueous fractions (0.3 mL each) are collected into a 96-well plate ready for LC-MS analysis. The LC-MS analysis of NAD metabolites is performed as described above.
The purpose of this assay is to measure reduction in tumor volume in response to test compound administration. A2780 and NCI-H1155 (NSCLC) cells are grown as described above for IVTI studies. Cells are harvested and injected subcutaneously onto the rear flank of nude mice. When tumors are established (7-21 days after implant), animals are randomized and grouped into control and test groups (7 animals/group). The test compound is formulated in 20% of CAPTISOL® and 25 mM of phosphate buffer, pH 2. Test compound and vehicle (20% of CAPTISOL® and 25 mM of phosphate buffer, pH 2 without compound) are administered by oral gavage. Tumor response is determined by tumor volume measurement (caliper) performed twice a week during the course of treatment and reported as percent of tumor volume of each treatment group divided by tumor volume of the vehicle control group. […]

| Compound | T/C (tumor volume of treatment group divided by vehicle control group) ([1]; 10 mg/kg BID oral) [%] | T/C (tumor volume of treatment group divided by vehicle control group) ([1]; 20 mg/kg BID oral) [%] | NAD levels (pmol/mg tissue) ([2]; 5 mg/kg (BID)) | NAD levels (pmol/mg tissue) ([2]; 10 mg/kg (BID)) | NAD levels (pmol/mg tissue) ([2]; 20 mg/kg (BID)) | T/C (tumor volume of treatment group divided by vehicle control group) ([1]; 8 mg/kg BID oral) [%] | T/C (tumor volume of treatment group divided by vehicle control group) ([1]; 16 mg/kg BID oral) [%] | NAD levels (pmol/mg tissue) ([2]; 8 mg/kg (BID)) | NAD levels (pmol/mg tissue) ([2]; 16 mg/kg (BID)) | NAD levels (pmol/mg tissue) ([2]; 32 mg/kg (BID)) |
| --- | --- | --- | --- | --- | --- | --- | --- | --- | --- | --- |
| CC(C)(O)CS(=O)(=O)Nc1ccc2c(c1)CCN(C(=O)COc1cccnc1)C2 [Example 1, 2-Hydroxy-2-methyl-N-[2-[2-(3-pyridyloxy)acetyl]-3,4-dihydro-1H-isoquinolin-6-yl]propane-1-sulfonamide] | 5.5 | −81.1 | 5.04 | 2.55 | 3.29 | – | – | – | – | – |
| COCCS(=O)(=O)Nc1ccc2c(c1)CCN(C(=O)COc1cccnc1)C2 [Example 2, 2-Methoxy-N-[2-[2-(3-pyridyloxy)acetyl]-3,4-dihydro-1H-isoquinolin-6-yl]ethanesulfonamide] | – | – | – | – | – | 5.2 | −82.7 | 3.97 | 6.52 | 6.38 |
